What was measured:
HCC-2998 = test: NCI anticancer screening, Colon Cancer HCC-2998; assay type: cell-based; settings: Homo sapiens; HCC-2998, 10 μM; read-out: % Growth Inhibition (GI %)
Outline: (§1)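 Human tumor cell lines of the NCI-60 set were exposed to the compound according to the standard DTP screening method.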

HOP-62 = test: NCI anticancer screening, Non-Small Cell Lung Cancer HOP-62; assay type: cell-based; settings: Homo sapiens; HOP-62, 10 μM; read-out: % Growth Inhibition (GI %)
Outline: as §1

LOX IMVI = test: NCI anticancer screening, Melanoma LOX IMVI; assay type: cell-based; settings: Homo sapiens, read-out: % Growth Inhibition (GI %)
Outline: as §1

RXF 393 = test: NCI anticancer screening, Renal Cancer RXF 393; assay type: cell-based; settings: Homo sapiens; RXF 393, 10 μM; read-out: % Growth Inhibition (GI %)
Outline: as §1

MALME-3M = test: NCI anticancer screening, Melanoma MALME-3M; assay type: cell-based; settings: Homo sapiens, read-out: % Growth Inhibition (GI %)
Outline: as §1

OVCAR-4 = test: NCI anticancer screening, Ovarian Cancer OVCAR-4; assay type: cell-based; settings: Homo sapiens; OVCAR-4, 10 μM; read-out: % Growth Inhibition (GI %)
Outline: as §1

PC-3 cells = test: MTT assay anticancer activity, PC-3; assay type: cell-based; settings: Homo sapiens, PC-3, 5 µM, mean ± SEM, read-out: growth inhibition percentage of PC-3
Description: MTT method was done as described above.

SK-MEL-5 = test: NCI anticancer screening, Melanoma SK-MEL-5; assay type: cell-based; settings: Homo sapiens; SK-MEL-5, 10 μM; read-out: % Growth Inhibition (GI %)
Outline: as §1

SNB-75 = test: NCI anticancer screening, CNS Cancer SNB-75; assay type: cell-based; settings: Homo sapiens; SNB-75, 10 μM; read-out: % Growth Inhibition (GI %)
Outline: as §1

SW-620 = test: NCI anticancer screening, Colon Cancer SW-620; assay type: cell-based; settings: Homo sapiens; SW-620, 10 μM; read-out: % Growth Inhibition (GI %)
Outline: as §1

SF-295 = test: NCI anticancer screening, CNS Cancer SF-295; assay type: cell-based; settings: Homo sapiens; SF-295, 10 μM; read-out: % Growth Inhibition (GI %)
Outline: as §1

A549/ATCC = test: NCI anticancer screening, Non-Small Cell Lung Cancer A549/ATCC; assay type: cell-based; settings: Homo sapiens, read-out: % Growth Inhibition (GI %)
Outline: as §1

U251 = test: NCI anticancer screening, CNS Cancer U251; assay type: cell-based; settings: Homo sapiens, U-251; U251, 10 μM; read-out: % Growth Inhibition (GI %)
Outline: as §1

SK-MEL-2 = test: NCI anticancer screening, Melanoma SK-MEL-2; assay type: cell-based; settings: Homo sapiens; SK-MEL-2, 10 μM; read-out: % Growth Inhibition (GI %)
Outline: as §1

OVCAR-8 = test: NCI anticancer screening, Ovarian Cancer OVCAR-8; assay type: cell-based; settings: Homo sapiens; OVCAR-8, 10 μM; read-out: % Growth Inhibition (GI %)
Outline: as §1

SK-MEL-28 = test: NCI anticancer screening, Melanoma SK-MEL-28; assay type: cell-based; settings: Homo sapiens; SK-MEL-28, 10 μM; read-out: % Growth Inhibition (GI %)
Outline: as §1

SF-539 = test: NCI anticancer screening, CNS Cancer SF-539; assay type: cell-based; settings: Homo sapiens; SF-539, 10 μM; read-out: % Growth Inhibition (GI %)
Outline: as §1

SR = test: NCI anticancer screening, Leukemia SR; assay type: cell-based; settings: Homo sapiens, read-out: % Growth Inhibition (GI %)
Outline: as §1

MOLT-4 = test: NCI anticancer screening, Leukemia MOLT-4; assay type: cell-based; settings: Homo sapiens; MOLT-4, 10 μM; read-out: % Growth Inhibition (GI %)
Outline: as §1

DU-145 = test: NCI anticancer screening, DU-145; assay type: cell-based; settings: Homo sapiens; DU-145, 10 μM; read-out: % Growth Inhibition (GI %)
Outline: as §1

SNB-19 = test: NCI anticancer screening, CNS Cancer SNB-19; assay type: cell-based; settings: Homo sapiens; SNB-19, 10 μM; read-out: % Growth Inhibition (GI %)
Outline: as §1

T-47D = test: NCI anticancer screening, Breast Cancer T-47D; assay type: cell-based; settings: Homo sapiens, T47D, read-out: % Growth Inhibition (GI %)
Outline: as §1

HL-60(TB) = test: NCI anticancer screening, Leukemia HL-60(TB); assay type: cell-based; settings: Homo sapiens, read-out: % Growth Inhibition (GI %)
Outline: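 Tested under the standard NCI-60 Human Tumor Cell Lines Screen protocol for organic compounds, run by the Developmental Therapeutics Program.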

ACHN = test: NCI anticancer screening, Renal Cancer ACHN; assay type: cell-based; settings: Homo sapiens, read-out: % Growth Inhibition (GI %)
Outline: as §1

NCI-H522 = test: NCI anticancer screening, Non-Small Cell Lung Cancer NCI-H522; assay type: cell-based; settings: Homo sapiens; NCI-H522, 10 μM; read-out: % Growth Inhibition (GI %)
Outline: as §1

NCI/ADR-RES = test: NCI anticancer screening, Ovarian Cancer NCI/ADR-RES; assay type: cell-based; settings: Homo sapiens, read-out: % Growth Inhibition (GI %)
Outline: as §1

HS 578T = test: NCI anticancer screening, Breast Cancer HS 578T; assay type: cell-based; settings: Homo sapiens, read-out: % Growth Inhibition (GI %)
Outline: as §1

TK-10 = test: NCI anticancer screening, Renal Cancer TK-10; assay type: cell-based; settings: Homo sapiens; TK-10, 10 μM; read-out: % Growth Inhibition (GI %)
Outline: as §1

786-0 = test: NCI anticancer screening, Renal Cancer 786-0; assay type: cell-based; settings: Homo sapiens; 786-0, 10 μM; read-out: % Growth Inhibition (GI %)
Outline: as §1

HOP-92 = test: NCI anticancer screening, Non-Small Cell Lung Cancer HOP-92; assay type: cell-based; settings: Homo sapiens; HOP-92, 10 μM; read-out: % Growth Inhibition (GI %)
Outline: as §1

CCRF-CEM = test: NCI anticancer screening, Leukemia CCRF-CEM; assay type: cell-based; settings: Homo sapiens, read-out: % Growth Inhibition (GI %)
Outline: as §1

K-562 = test: NCI anticancer screening, Leukemia K-562; assay type: cell-based; settings: Homo sapiens, K562; K-562, 10 μM; read-out: % Growth Inhibition (GI %)
Outline: as §1

MDA-MB 231 cells = settings: for inhibition: 5 µM
Description: Anticancer effect of the above-mentioned compounds was assayed using three human cancer cell lines. Triple negative breast cancer cell line (MDA-MB 231) and prostate cancer cell line (PC3) were cultured in DMEM (Lonza, USA) supplemented with 10% FBS. All cancer cells (4x10^3 cells/well) were seeded in sterile 96-well plates. After 24h, serial concentrations of the tested compounds were incubated with three cancer cell lines for 72 h at 37 °C in 5% CO2 incubator. […] The half maximal inhibitory concentration (IC50) values were calculated using the Graphpad Instat software.

HCT-116 = test: NCI anticancer screening, Colon Cancer HCT-116; assay type: cell-based; settings: Homo sapiens; HCT-116, 10 μM; read-out: % Growth Inhibition (GI %)
Outline: as §1

EKVX = test: NCI anticancer screening, Non-Small Cell Lung Cancer EKVX; assay type: cell-based; settings: Homo sapiens, read-out: % Growth Inhibition (GI %)
Outline: as §1

CAKI-1 = test: NCI anticancer screening, Renal Cancer CAKI-1; assay type: cell-based; settings: Homo sapiens; CAKI-1, 10 μM; read-out: % Growth Inhibition (GI %)
Outline: as §1

SN12C = test: NCI anticancer screening, Renal Cancer SN12C; assay type: cell-based; settings: Homo sapiens, read-out: % Growth Inhibition (GI %)
Outline: as §1

NCI-H322M = test: NCI anticancer screening, Non-Small Cell Lung Cancer NCI-H322M; assay type: cell-based; settings: Homo sapiens, read-out: % Growth Inhibition (GI %)
Outline: as §1

Row | Compound | inhibition at 10 µM (HCC-2998) [%] | inhibition at 10 µM (HOP-62) [%] | inhibition at 10 µM (LOX IMVI) [%] | inhibition at 10 µM (RXF 393) [%] | inhibition at 10 µM (MALME-3M) [%] | inhibition at 10 µM (OVCAR-4) [%] | inhibition at 5 µM (PC-3 cells) [%] | inhibition at 10 µM (SK-MEL-5) [%] | inhibition at 10 µM (SNB-75) [%] | inhibition at 10 µM (SW-620) [%] | inhibition at 10 µM (SF-295) [%] | inhibition at 10 µM (A549/ATCC) [%] | inhibition at 10 µM (U251) [%] | inhibition at 10 µM (SK-MEL-2) [%] | inhibition at 10 µM (OVCAR-8) [%] | inhibition at 10 µM (SK-MEL-28) [%] | inhibition at 10 µM (SF-539) [%] | inhibition at 10 µM (SR) [%] | inhibition at 10 µM (MOLT-4) [%] | inhibition at 10 µM (DU-145) [%] | other results
1 | O=C(c1nc2ccccc2[nH]1)[C@H]1[C@H](c2ccco2)C2CSCN2[C@]12C(=O)Nc1ccccc12 (stereo partly drawn) [Compound 6n, (3S,6′R)-6'-(1H-Benzo [d]imidazole-2-carbonyl)-7'-(furan-2-yl)-3′,6′,7′,7a′-tetrahydro-1′H-spiro [indoline-3.5′-pyrrolo [1,2-c]thiazol]-2-one] | 104 | 99.8 | 91.7 | 104 | 102 | 99.2 | 52.5 ± 1.46 | 98.2 | 96 | 95.6 | 109 | 102 | 109 | 124 | 101 | 107 | 96.4 | 86.8 | 96.8 | 114 | inhibition at 10 µM (SNB-19): 96.8%; inhibition at 10 µM (T-47D): 84.8%; inhibition at 10 µM (HL-60(TB)): 98.4%; inhibition at 10 µM (ACHN): 93.7%; inhibition at 10 µM (NCI-H522): 99.7%; inhibition at 10 µM (NCI/ADR-RES): 101%; inhibition at 10 µM (HS 578T): 91.3%; melting point: 240 to 242 °C; inhibition at 10 µM (TK-10): 133%; inhibition at 10 µM (786-0): 104%; inhibition at 10 µM (HOP-92): 113%; inhibition at 10 µM (CCRF-CEM): 110%; inhibition at 10 µM (K-562): 89.8%; IC50 (MDA-MB 231 cells): 6.14 ± 0.246 µM; inhibition (MDA-MB 231 cells): 52.9 ± 2.5%; inhibition at 10 µM (HCT-116): 98.6%; inhibition at 10 µM (EKVX): 103%; inhibition at 10 µM (CAKI-1): 88.5%; inhibition at 10 µM (SN12C): 92.5%; inhibition at 10 µM (NCI-H322M): 101%
2 | O=C(c1nc2ccccc2[nH]1)[C@H]1[C@H](c2cccs2)C2CSCN2[C@]12C(=O)Nc1ccccc12 (stereo partly drawn) [Compound 6e, (3S,6′R)-6'-(1H-Benzo [d]imidazole-2-carbonyl)-7'-(thiophen-2-yl)-3′,6′,7′,7a′-tetrahydro-1′H-spiro [indoline-3.5′-pyrrolo [1,2-c]thiazol]-2-one] | 108 | 99.5 | 97.5 | 112 | 101 | 93.9 | 58.2 ± 0.729 | 99 | 85.9 | 96.7 | 92.6 | 87.1 | 100 | 111 | 96.8 | 105 | 101 | 101 | 96.1 | 109 | inhibition at 10 µM (SNB-19): 104%; inhibition at 10 µM (T-47D): 90.5%; inhibition at 10 µM (HL-60(TB)): 94.1%; inhibition at 10 µM (ACHN): 103%; inhibition at 10 µM (NCI-H522): 91.5%; inhibition at 10 µM (NCI/ADR-RES): 102%; inhibition at 10 µM (HS 578T): 101%; melting point: 240 to 242 °C; inhibition at 10 µM (TK-10): 106%; inhibition at 10 µM (786-0): 100%; inhibition at 10 µM (HOP-92): 105%; inhibition at 10 µM (CCRF-CEM): 104%; inhibition at 10 µM (K-562): 100%; IC50 (MDA-MB 231 cells): 5.61 µM; inhibition (MDA-MB 231 cells): 58.2 ± 1.85%; inhibition at 10 µM (HCT-116): 96.3%; inhibition at 10 µM (EKVX): 100%; inhibition at 10 µM (CAKI-1): 89.6%; inhibition at 10 µM (SN12C): 97.5%; inhibition at 10 µM (NCI-H322M): 97.7%
3 | O=C(c1nc2ccccc2[nH]1)[C@H]1[C@H](c2ccc(Cl)cc2Cl)C2CSCN2[C@]12C(=O)Nc1ccccc12 (stereo partly drawn) [Compound 6g, (3S,6′R)-6'-(1H-Benzo [d]imidazole-2-carbonyl)-7'-(2,4-dichlorophenyl)-3′,6′,7′,7a′-tetrahydro-1′H-spiro [indoline-3.5′-pyrrolo [1,2-c]thiazol]-2-one] | 70.3 | 80.3 | 67.2 | 40.7 | 86.2 | 57.6 | 54.5 ± 1.56 | 81.9 | 59.7 | 72.9 | 63.7 | 62 | 79 | 84.4 | 77 | 78.3 | 76.4 | 45.8 | 43 | 86.9 | inhibition at 10 µM (SNB-19): 70.1%; inhibition at 10 µM (T-47D): 54.4%; inhibition at 10 µM (HL-60(TB)): 80.7%; inhibition at 10 µM (ACHN): 63.7%; inhibition at 10 µM (NCI-H522): 71.7%; inhibition at 10 µM (NCI/ADR-RES): 68.4%; inhibition at 10 µM (HS 578T): 65.1%; melting point: 235 to 237 °C; inhibition at 10 µM (TK-10): 107%; inhibition at 10 µM (786-0): 85.9%; inhibition at 10 µM (HOP-92): 77.6%; inhibition at 10 µM (CCRF-CEM): 60.1%; inhibition at 10 µM (K-562): 65.6%; IC50 (MDA-MB 231 cells): 6.22 µM; inhibition (MDA-MB 231 cells): 56.7 ± 0.87%; inhibition at 10 µM (HCT-116): 56.4%; inhibition at 10 µM (EKVX): 63.5%; inhibition at 10 µM (CAKI-1): 36.9%; inhibition at 10 µM (SN12C): 63%; inhibition at 10 µM (NCI-H322M): 79.5%

From PMC11033320, “Activation of p53 signaling and regression of breast and prostate carcinoma cells by spirooxindole-benzimidazole small molecules” (Frontiers in Pharmacology, 2024)
